Measurements published in patent US6914045B2, “Glycopeptide antibiotics” (Wyeth Holdings Corporation, priority 2001, dated 2005).
Converted amounts (≈) assume the structure as drawn.

Key:
Test in all cases: in vitro antibacterial evaluation, MIC by broth dilution
Assay type in all cases: cell-based
Streptococcus sp. = settings: broth dilution, 18 hours at 35° C.
Method in brief: (§1)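 Read-out: the lowest concentration at which the test strain fails to grow. Serial dilutions (64-0.06 μg/mL) in Muller-Hinton II […], 5×10^5 CFU/mL inoculum, NCCLS M7-A2 procedure.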

Escherichia coli = settings: 18 hours at 35° C.
Method in brief: as §1

Staphylococcus sp. = settings: broth dilution, 18 hours at 35° C.
Method in brief: as §1

Enterococcus sp. = settings: broth dilution, 18 hours at 35° C.
Method in brief: as §1

MIC Streptococcus agalactiae (GC 4564) (Streptococcus sp.; Streptococcus agalactiae (GC 4564)): <0.06 µg/mL
MIC Streptococcus pneumoniae (ATCC 6301) (Streptococcus sp.; Streptococcus pneumoniae (ATCC 6301)): <0.06 µg/mL
MIC Streptococcus pneumoniae (GC 1894) (Streptococcus sp.; Streptococcus pneumoniae (GC 1894)): <0.06 µg/mL
MIC Streptococcus pneumoniae (GC 4565) (Streptococcus sp.; Streptococcus pneumoniae (GC 4565)): <0.06 µg/mL
MIC Streptococcus pyogenes (GC 4563) (Streptococcus sp.; Streptococcus pyogenes (GC 4563)): <0.06 µg/mL
MIC Streptococcus pneumoniae (ATCC 6301) (Streptococcus sp.; strain ATCC 6301): <0.06 µg/mL
MIC Streptococcus pneumoniae (GC 1894) (Streptococcus sp.; strain GC 1894): <0.06 µg/mL
MIC Streptococcus pyogenes (GC 4563) (Streptococcus sp.; strain GC 4563): <0.06 µg/mL
MIC Streptococcus agalactiae (GC 4564) (Streptococcus sp.; strain GC 4564): <0.06 µg/mL
MIC Streptococcus pneumoniae (GC 4565) (Streptococcus sp.; strain GC 4565): <0.06 µg/mL
MIC Escherichia coli (ATCC 25922) (Escherichia coli; strain ATCC 25922): 32 µg/mL (≈ 22 µM)
MIC Escherichia coli (GC 4559) (Escherichia coli; strain GC 4559): 32 µg/mL (≈ 22 µM)
MIC Escherichia coli (GC 4560) (Escherichia coli; strain GC 4560): 2 µg/mL (≈ 1.37 µM)
MIC Staphylococcus aureus (ATCC 29213) (Staphylococcus sp.): 4 µg/mL (≈ 2.75 µM)
MIC Staphylococcus aureus (GC 1131) (Staphylococcus sp.): 2 µg/mL (≈ 1.37 µM)
MIC Staphylococcus aureus (GC 3051) (Staphylococcus sp.): 2 µg/mL (≈ 1.37 µM)
MIC Staphylococcus aureus (GC 3053) (Staphylococcus sp.): 2 µg/mL (≈ 1.37 µM)
MIC Staphylococcus aureus (GC 4541) (Staphylococcus sp.): 2 µg/mL (≈ 1.37 µM)
MIC Staphylococcus aureus (GC 4542) (Staphylococcus sp.): 2 µg/mL (≈ 1.37 µM)
MIC Staphylococcus aureus (GC 4544) (Staphylococcus sp.): 2 µg/mL (≈ 1.37 µM)
MIC Staphylococcus aureus (GC 4545) (Staphylococcus sp.): 2 µg/mL (≈ 1.37 µM)
MIC Staphylococcus aureus (GC 1131) (Staphylococcus sp.; inoculum 5×10^5 CFU/mL, strain GC 1131): 2 µg/mL (≈ 1.37 µM)
MIC Staphylococcus aureus (ATCC 29213) (Staphylococcus sp.; strain ATCC 29213): 4 µg/mL (≈ 2.75 µM)
MIC Staphylococcus aureus (GC 3051) (Staphylococcus sp.; strain GC 3051): 2 µg/mL (≈ 1.37 µM)
MIC Staphylococcus aureus (GC 3053) (Staphylococcus sp.; strain GC 3053): 2 µg/mL (≈ 1.37 µM)
MIC Staphylococcus aureus (GC 4541) (Staphylococcus sp.; strain GC 4541): 2 µg/mL (≈ 1.37 µM)
MIC Staphylococcus aureus (GC 4542) (Staphylococcus sp.; strain GC 4542): 2 µg/mL (≈ 1.37 µM)
MIC Staphylococcus aureus-SMITH (GC 4543) (Staphylococcus sp.; strain GC 4543): 2 µg/mL (≈ 1.37 µM)
MIC Staphylococcus aureus (GC 4544) (Staphylococcus sp.; strain GC 4544): 2 µg/mL (≈ 1.37 µM)
MIC Staphylococcus aureus (GC 4545) (Staphylococcus sp.; strain GC 4545): 2 µg/mL (≈ 1.37 µM)
MIC Coagulase Negative Staphylococcus (GC 4547) (Staphylococcus sp.; strain GC 4547): 2 µg/mL (≈ 1.37 µM)
MIC Coagulase Negative Staphylococcus (GC 4548) (Staphylococcus sp.; strain GC 4548): 1 µg/mL (≈ 0.687 µM)
MIC Coagulase Negative Staphylococcus (GC 4549) (Staphylococcus sp.; strain GC 4549): 1 µg/mL (≈ 0.687 µM)
MIC Coagulase Negative Staphylococcus (GC 4551) (Staphylococcus sp.; strain GC 4551): 4 µg/mL (≈ 2.75 µM)
MIC Coagulase Negative Staphylococcus (GC 6257) (Staphylococcus sp.; strain GC 6257): 1 µg/mL (≈ 0.687 µM)
MIC Staphylococcus aureus-SMITH (GC 4543) (Staphylococcus sp.; strain SMITH GC 4543): 2 µg/mL (≈ 1.37 µM)
MIC Enterococcus avium (GC 4558) (Enterococcus sp.; Enterococcus avium (GC 4558)): 2 µg/mL (≈ 1.37 µM)
MIC Enterococcus faecalis (ATCC 29212) (Enterococcus sp.; Enterococcus faecalis (ATCC 29212)): 2 µg/mL (≈ 1.37 µM)
MIC Enterococcus faecalis (GC 2242) (Enterococcus sp.; Enterococcus faecalis (GC 2242)): 2 µg/mL (≈ 1.37 µM)
MIC Enterococcus faecalis (GC 2691) (Enterococcus sp.; Enterococcus faecalis (GC 2691)): 2 µg/mL (≈ 1.37 µM)
MIC Enterococcus faecalis (GC 3059) (Enterococcus sp.; Enterococcus faecalis (GC 3059)): 2 µg/mL (≈ 1.37 µM)
MIC Enterococcus faecalis (GC 4552) (Enterococcus sp.; Enterococcus faecalis (GC 4552)): 2 µg/mL (≈ 1.37 µM)
MIC Enterococcus faecalis (GC 4553) (Enterococcus sp.; Enterococcus faecalis (GC 4553)): 2 µg/mL (≈ 1.37 µM)
MIC Enterococcus faecalis (GC 4554) (Enterococcus sp.; Enterococcus faecalis (GC 4554)): 2 µg/mL (≈ 1.37 µM)
MIC Enterococcus faecalis (GC 6189) (Enterococcus sp.; Enterococcus faecalis (GC 6189)): 2 µg/mL (≈ 1.37 µM)
MIC Enterococcus faecium (GC 2243) (Enterococcus sp.; Enterococcus faecium (GC 2243)): 2 µg/mL (≈ 1.37 µM)
MIC Enterococcus faecium (GC 4556) (Enterococcus sp.; Enterococcus faecium (GC 4556)): 2 µg/mL (≈ 1.37 µM)
MIC Enterococcus faecium (GC 4557) (Enterococcus sp.; Enterococcus faecium (GC 4557)): 2 µg/mL (≈ 1.37 µM)
MIC Enterococcus faecalis (ATCC 29212) (Enterococcus sp.; strain ATCC 29212): 2 µg/mL (≈ 1.37 µM)
MIC Enterococcus faecalis (GC 2242) (Enterococcus sp.; strain GC 2242): 2 µg/mL (≈ 1.37 µM)
MIC Enterococcus faecium (GC 2243) (Enterococcus sp.; strain GC 2243): 2 µg/mL (≈ 1.37 µM)
MIC Enterococcus faecalis (GC 2691) (Enterococcus sp.; strain GC 2691): 2 µg/mL (≈ 1.37 µM)
MIC Enterococcus faecalis (GC 3059) (Enterococcus sp.; strain GC 3059): 2 µg/mL (≈ 1.37 µM)
MIC Enterococcus faecalis (GC 4552) (Enterococcus sp.; strain GC 4552): 2 µg/mL (≈ 1.37 µM)
MIC Enterococcus faecalis (GC 4553) (Enterococcus sp.; strain GC 4553): 2 µg/mL (≈ 1.37 µM)
MIC Enterococcus faecalis (GC 4554) (Enterococcus sp.; strain GC 4554): 2 µg/mL (≈ 1.37 µM)
MIC Enterococcus faecium (GC 4556) (Enterococcus sp.; strain GC 4556): 2 µg/mL (≈ 1.37 µM)
MIC Enterococcus faecium (GC 4557) (Enterococcus sp.; strain GC 4557): 2 µg/mL (≈ 1.37 µM)
MIC Enterococcus avium (GC 4558) (Enterococcus sp.; strain GC 4558): 2 µg/mL (≈ 1.37 µM)
MIC Enterococcus faecalis (GC 6189) (Enterococcus sp.; strain GC 6189): 2 µg/mL (≈ 1.37 µM)
Compound: CC(c1ccccc1)C1NC(=O)CNC(=O)C(CO)NC(=O)C(C(O)C2CNC(=N)N2C2OC(CO)C(O)C(O)C2O)NC(=O)C(C(O)C2CNC(=N)N2)NC(=O)C(Cc2ccc(OC3OC(CO)C(OC4OC5COC(CC67CC8CC(CC(C8)C6)C7)OC5C(O)C4O)C(O)C3O)cc2)NC1=O (stereo not shown) [Example 129]
MIC Staphylococcus haemolyticus (GC 4546) (Staphylococcus sp.; strain GC 4546): 2 µg/mL (≈ 1.37 µM)
